Laboratory results published in publication PMC2652407 (Journal of Medicinal Chemistry, 2009).

Columns and labels:
hAdoMetDC [1] = biological target: T1, hAdoMetDC (Homo sapiens, UniProt P17707); details: previously reported AdoMetDC inhibitor; cited from earlier work
T1 sequence (P17707 1-67 limits assumed): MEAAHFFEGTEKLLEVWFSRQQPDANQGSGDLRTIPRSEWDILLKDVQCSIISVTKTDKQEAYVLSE
T1 sequence (P17707 68-328 limits assumed): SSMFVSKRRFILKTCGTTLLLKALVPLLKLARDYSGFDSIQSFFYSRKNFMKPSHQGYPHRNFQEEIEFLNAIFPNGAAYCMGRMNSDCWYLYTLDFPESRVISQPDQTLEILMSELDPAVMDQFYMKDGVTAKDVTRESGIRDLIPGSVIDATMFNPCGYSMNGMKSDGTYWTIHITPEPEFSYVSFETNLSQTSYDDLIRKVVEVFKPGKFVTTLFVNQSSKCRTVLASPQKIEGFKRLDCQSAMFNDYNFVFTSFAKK

hAdoMetDC [2] = biological target: T1, hAdoMetDC; assay type: biochemical; details: versus corresponding 8-H parent compound

reduction in the IC50 value / increase in potency when an 8-methyl substituent was added to the adenine ring (hAdoMetDC [2]) [fold] | SMILES | Ki (hAdoMetDC [1])
 | C[S+](C)C[C@H]1O[C@@H](n2cnc3c(N)ncnc32)[C@H](O)[C@@H]1O.[Cl-] [Compound 25d, 5′-Deoxy-5′-dimethylsulfonioadenosine chloride] | μM range
3.4 | Cc1nc2c(N)ncnc2n1[C@@H]1O[C@H](CN(C)CCCCON)[C@@H](O)[C@H]1O.O=S(=O)(O)O [Compound 14d, 5′-[(4-Aminooxybutyl)methylamino]-5′-deoxy-8-methyladenosine sulfate (1.9:1 salt)] | 
